In article PMC13489962, “Small-molecule modulation of β-arrestins” (Nature, 2026):

Legend:
[1] = molecular target: T1, βARR1 K138A (Rattus norvegicus, UniProt P29066, K138A); assay: ITC binding to βARR1 mutant K138A; details: 25 °C
T1 construct: βARR1 or βARR2 construct, with their C terminus truncated (at amino acid 393 or 394, respectively); GST (pGEX4T1) (N, cleaved yes); made in house; host or cells: E. coli BL21 (DE3) pLysS
Method: (§1) The expression and purification of β-arrestins have been described previously[44],[62]–[64]. In brief, E. coli BL21 (DE3) pLysS cells (New England Biolabs: C2527I) carrying pGEX4T1-Rattus norvegicus βARR1 or βARR2 construct, with their C terminus truncated (at amino acid 393 or 394, respectively), were cultured in Terrific Broth (Teknova) medium at 37 °C. After OD600 reached 0.6–0.8, the cells were induced with 0.1 mM isopropyl-β-D-thiogalactopyranoside (IPTG) at 18 °C overnight. Bacteria were collected by centrifugation (4,000 rpm), and cell pellets were resuspended in lysis buffer (20 mM HEPES, pH 8, 150 mM NaCl, 10% glycerol, 1 mM EDTA, 0.2 mM dithiothreitol (DTT), 1 mM phenylmethylsulfonyl fluoride, and 1 mM benzamidine) at 4 °C for 1 h. […] Eluted fractions were analysed by SDS–PAGE, pooled, concentrated using 30 kDa MWCO Amicon Ultra-15 Centrifugal Filter devices, flash-frozen in liquid nitrogen, and stored in aliquots at −80 °C. […] Protein concentrations for each protein were determined by ultraviolet absorption at 280 nm and extinction coefficients estimated using the ExPASy ProtParam tool[67].
(§2) ITC measurements were performed on a MicroCal iTC200 system at 25 °C. […] Protein concentrations were determined by spectrophotometry at 280 nm, using extinction coefficients calculated from each protein sequence via the ProtParam program. […]

[2] = molecular target: T2, βARR1 Y249A (Rattus norvegicus, UniProt P29066, Y249A); assay: ITC binding to βARR1 mutant Y249A
T2 construct: βARR1 or βARR2 construct, with their C terminus truncated (at amino acid 393 or 394, respectively); GST (pGEX4T1) (N, cleaved yes); made in house; host or cells: E. coli BL21 (DE3) pLysS
T2 sequence (P29066 1-393 Y249A): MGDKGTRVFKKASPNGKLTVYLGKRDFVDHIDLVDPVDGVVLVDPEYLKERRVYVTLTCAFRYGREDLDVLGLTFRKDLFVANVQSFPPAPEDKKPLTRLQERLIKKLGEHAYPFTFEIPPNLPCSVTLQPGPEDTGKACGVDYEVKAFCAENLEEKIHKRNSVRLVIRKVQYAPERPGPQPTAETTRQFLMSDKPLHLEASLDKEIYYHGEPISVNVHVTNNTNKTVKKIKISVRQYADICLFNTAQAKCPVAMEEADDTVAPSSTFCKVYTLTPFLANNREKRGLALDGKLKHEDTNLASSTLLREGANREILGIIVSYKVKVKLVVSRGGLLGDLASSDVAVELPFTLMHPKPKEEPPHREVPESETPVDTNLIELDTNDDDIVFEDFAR
Method: as §1, §2

[3] = molecular target: T3, βARR1 E134A (Rattus norvegicus, UniProt P29066, E134A); assay: ITC binding to βARR1 mutant E134A; details: 25 °C
T3 construct: βARR1 or βARR2 construct, with their C terminus truncated (at amino acid 393 or 394, respectively); GST (pGEX4T1) (N, cleaved yes); made in house; host or cells: E. coli BL21 (DE3) pLysS
T3 sequence (P29066 1-393 E134A): as the sequence (P29066 1-393 Y249A) above, with E134A, A249Y counted along it
Method: as §1, §2

[4] = molecular target: T4, βARR1 P133A (Rattus norvegicus, UniProt P29066, P133A); assay: ITC binding to βARR1 mutant P133A; details: 25 °C
T4 construct: βARR1 or βARR2 construct, with their C terminus truncated (at amino acid 393 or 394, respectively); GST (pGEX4T1) (N, cleaved yes); made in house; host or cells: E. coli BL21 (DE3) pLysS
T4 sequence (P29066 1-393 P133A): as the sequence (P29066 1-393 Y249A) above, with P133A, A249Y counted along it
Method: as §1, §2

[5] = molecular target: T5, βARR1 C251A (Rattus norvegicus, UniProt P29066, C251A); assay: ITC binding to βARR1 mutant C251A
T5 construct: βARR1 or βARR2 construct, with their C terminus truncated (at amino acid 393 or 394, respectively); GST (pGEX4T1) (N, cleaved yes); made in house; host or cells: E. coli BL21 (DE3) pLysS
T5 sequence (P29066 1-393 C251A): as the sequence (P29066 1-393 Y249A) above, with A249Y, C251A counted along it
Method: as §1, §2

[6] = test system: β-arrestin; assay: Functional assays (not specified); details: peer review reply

T1 sequence (P29066 1-393 K138A): as the sequence (P29066 1-393 Y249A) above, with K138A, A249Y counted along it

**Q.** For `C=C1C(=O)[C@]23[C@H](O)[C@H]1CC[C@H]2[C@@]12CO[C@]3(O)[C@@H](O)[C@@H]1C(C)(C)CC[C@@H]2O` [Cmpd-5, (1S,4aR,5S,6S,6aR,9S,11aS,11bS,14R)-1,5,6,14-tetrahydroxy−4,4-dimethyl-8-methylenedecahydro-1H-6,11b-(epoxymethano)-6a,9-methanocyclohepta[a]naphthalen-7(8H)-one], which Kd [1] is on record?
**A.** 1 ± 0.3 µM

**Q.** What about the “Kd fold over WT, βARR1 Y249A” value [2] of the same compound?
**A.** 10.6 fold

**Q.** And the Kd ([2]; 25 °C)?
**A.** 3.8 ± 0.9 µM

**Q.** And the Kd [3]?
**A.** 2.2 ± 0.5 µM

**Q.** What about the “ΔH, βARR1 E134A” value [3] of the same compound?
**A.** -1.2 kcal/mol

**Q.** And the Kd [4]?
**A.** 1 ± 0.4 µM

**Q.** What about the “Kd fold over WT, βARR1 C251A” value [5] of the same compound?
**A.** 8.3 fold

**Q.** And the Kd ([5]; 25 °C)?
**A.** 3 ± 1 µM

**Q.** What about the “binding affinity from functional assays” value [6] of the same compound?
**A.** 2 to 10 µM
